One experiment deals with tumor cell lines. Description: Inhibition of cellular proliferation, CellTiter-Glo, 72 hours, all cell lines tested. As to conditions: 72 hours of continuous compound exposure. It counts as cell-based. The text has this:
Cell lines used were as follows: HCT-116 (National Cancer Institute's DCTF Tumor Repository, catalog #NCI-502568, Rockville, Md.), HCT-15 (National Cancer Institute's DCTF Tumor Repository, catalog#NCI-502711, Rockville, Md. available from American Type Tissue Collection, catalog #CLL-225), KB-3-1 (available from DSMZ, Deutsche Sammlung von Mikroorganismen und Zellkulturen GmbH (German Collection of Microorganisms and Cell Cultures—catalog number ACC 158), KB-V1 (available from DSMZ—catalog number ACC 149), AGS (available from American Type Culture Collection, Manassas Va., catalog number CRL-1739™), N87 (available from American Type Culture Collection, Manassas Va., catalog number CRL-5822), Hel92.1.7 (available from American Type Culture Collection, Manassas Va., catalog number TIB 180), K562 (available from American Type Culture Collection, Manassas Va., catalog number CRL-243™), MV4; 11 (American Tissue Culture Collection, Manassas Va., catalog number CRL-9591) and U937 (available from American Type Culture Collection, Manassas Va., catalog number CRL-1593.2).
Cells were plated in 96-well plates at densities of about 500 cells per well of a 96-well plate and allowed to grow for 24 hours. […] The amount of luminescence was determined for each well using a Wallac Trilux plate reader, which correlates with the number of cells per well. […]

The next experiment concerns HCT-116. Description: CTG (CellTiter-Glo) screening assay. Format: cell-based. The note with it: Homo sapiens. The text has this:
Identification of tumor types that are the most sensitive to the KSP inhibitors of the present invention can be accomplished using an unbiased approach that uses several cell-based assays. The assays chosen were as follows: • CellTiter-Glo®. This is an assay designed to measure ATP concentration in a cell culture, and can be correlated to cell number. Briefly CellTiter-Glo® (Promega Corporation) is a homogeneous method using the single CellTiter-Glo® reagent to detect ATP wherein ATP in the assay drives the activity of a thermostable luciferase to create a luminescent signal which can then be measured and correlated with the number of viable cells. Briefly, for adherent cells, 1,000 to 5,000 cells/well were plated in 96-well plates (100 μl/well) and let to adhere for 24 hours before being treated with drug. For non-adherent cells, 1,000 to 10,000 cells/well were plated in 96-well plates (100 μl/well) and immediately treated with drug. Drug dilutions were prepared in DMSO at 1000 times the final concentration. These dilutions were then diluted 1/100 in growth media before being added to the cells (11 μl/well) to achieve the desired final concentration. […] Protocol for a 72 hour cell proliferation assay: The 72 hour assay was performed the same way as the 48 hour assay except for the following modifications: For adherent cells, 500 to 5,000 cells/well were plated in 96-well plates (90 μl/well cell growth media) and left to adhere for 24 hours before being treated with drug. For non-adherent cells, 1,000 to 10,000 cells/well were plated in 96-well plates (90 μl/well cell growth media) and immediately treated with drug. Data values presented represent the concentration of test compound required for a 50% reduction in growth. • LDH release. […] The enzymatic reaction is coupled to a chemical reaction that uses a tetrazolium salt to form a formazan that is red and can be detected by its absorbance at 490 nm. […]

Consider `CC(C)(C)[C@H](c1nc(-c2cc(F)ccc2F)cn1Cc1ccccc1)N(CC[C@H](N)CF)C(=O)CO` [Compound IIa], for which the GI50 was 0.1 to 6.5 nM in the experiment on tumor cell lines; above 5 nM in the experiment with HCT-116 (HCT-116, 24 h); 0.11 nM in the experiment on HCT-116 (HCT-116, 48 h); 0.13 nM with HCT-116 (HCT-116, 72 h).
